Measurements taken from patent EP0242417B1, “Morphinane-skeletoned hydrazone derivatives, process for preparing them, pharmaceutical composition and use” (ALKALOIDA VEGYéSZETI GYáR, priority 1986, dated 1987).

Columns and labels:
[1] = compared with naloxone; cited from earlier work
[2] = Tail Flick test (analgetic activity); assay type: in vivo; details: sc
[3] = Hot plate test (analgetic activity); assay type: in vivo; details: sc
opiate receptors = test: Competition for tritiated Naloxon specific binding in rat brain membrane preparates; details: tritiated Naloxon bond (1 nanomole) taken as 100 %
Method: The effect of the 10⁻⁷ and 10⁻⁵ M concentration of the compounds was examined to tritiated Naloxon bond in rat brain membrane preparates. […]
If the inhibition is high, i.e. the value of the specific bond of the labelled Naloxon is low, the compounds bind to the opiate receptors with high affinity.
A comparative data the tritiated Naloxon bond (concentration: 1 nanomole) was taken as 100 % (without excipients).
The membrane preparate was prepared according to the following article: G.W. Pasternak, H.A. Wilson, S.H. Snyder: Molecular Pharmacol. 11 340-51 (1975).
The specific radioactivity of the labelled Naloxon was 72.4 Ci/mmole [G. Töth, M. Kramer, F. Sirokmán, A. Borsodi, A. Rónai: J. Label. Comp. Radiopharm. 19 1021 (1976)].

[4] = Sensitivity to light of the isolated product
[5] = compound concentration 10⁻⁵ mol
[6] = compound concentration 10⁻⁷ mol

Structure (SMILES) | membrane affinity [1] | Tail Flick ED₅₀ [2] | Hot plate test ED₅₀ [3] | residual tritiated specific bonds of Naloxon (opiate receptors; [5]) | residual tritiated specific bonds of Naloxon (opiate receptors; [6]) | sensitivity to light [4]
C=CCN1CCC23c4c5ccc(O)c4OC2C(=NNc2ccccc2)CCC3(O)C1C5 (stereo not shown) [naloxone phenylhydrazone] | much weaker membrane affinity than naloxone |  |  |  |  | 
CN1CC[C@]23c4c5ccc(O)c4O[C@H]2[C@@H](O)C=C[C@H]3[C@H]1C5 [Morphine, reference compound] |  | 5.0 mg/kg.sc. | 3.6 mg/kg.sc |  |  | 
COc1ccc2c3c1O[C@H]1C(=NNC(N)=O)CC[C@H]4[C@@H](C2)N(C)CC[C@]314 [Dihydrocodeinone semicarbazone] |  | 0.35 mg/kg.sc. | 0.38 mg/kg.sc | 9±7% | 43±4% | 
COc1ccc2c3c1O[C@H]1C(=NNc4ccccc4)CC[C@H]4[C@@H](C2)N(C)CC[C@]314 [Dihydrocodeinone phenylhydrazone] |  | 2.3 mg/kg.sc. | 2.4 mg/kg.sc | 5±1% | 75±9% | 
COc1ccc2c3c1O[C@H]1C(=NNC(N)=S)CC[C@H]4[C@@H](C2)N(C)CC[C@]314 [Dihydrocodeinone thiosemicarbazone] |  | 0.6 mg/kg.sc. | 1.7 mg/kg.sc |  |  | 
CN1CC[C@]23c4c5ccc(O)c4O[C@H]2C(=NNC(N)=S)CC[C@H]3[C@H]1C5 [Dihydromorphinone thiosemicarbazone] |  |  |  | 19±4% | 16±5% | 
CN1CC[C@]23c4c5ccc(O)c4O[C@H]2C(=NNC(N)=S)CC[C@@]3(O)[C@H]1C5 [Oxymorphone thiosemicarbazone, 14-OH dihydromorphine thiosemicarbazone] |  |  |  | 0% | 37±9% | 
CN1CC[C@]23c4c5ccc(O)c4O[C@H]2C(=NNc2ccccc2)CC[C@H]3[C@H]1C5 [Dihydromorphinone phenylhydrazone] |  |  |  | 10±14% | 4±5% | 
COc1ccc2c3c1O[C@H]1C(=NNc4ccccc4)CC[C@@]4(O)[C@@H](C2)N(C)CC[C@]314 [Oxycodone phenylhydrazone, 14-OH-dihydrocodeinone phenylhydrazone] |  | 1.2 mg/kg.sc. | 0.8 mg/kg.sc |  |  | 
COc1ccc2c3c1O[C@H]1C(=NNc4ccccc4)C=C[C@@]4(O)[C@@H](C2)N(C)CC[C@]314 [14-OH-codeinone phenylhydrazone] |  |  |  |  |  | sensitive to light
COc1ccc2c3c1O[C@H]1C(=NN)C=C[C@@]4(O)[C@@H](C2)N(C)CC[C@]314 [Oxycodeinone hydrazone, 14-OH-codeinone hydrazone] |  |  |  | 13±7% | 92±25% | 
CN1CC[C@]23c4c5ccc(O)c4O[C@H]2C(=NNC(N)=O)CC[C@@]3(O)[C@H]1C5 [Oxymorphone semicarbazone, 14-OH-dihydromarphinone semicarbazone] |  | 0.9 mg/kg.sc. | 0.9 mg/kg.sc |  |  | 
COc1ccc2c3c1O[C@H]1C(=NNC(N)=O)CC[C@@]4(O)[C@@H](C2)N(C)CC[C@]314 [Oxycodone semicarbazone, 14-OH-dihydrocodeinonesemicarbazone] |  | 0.45 mg/kg.sc. | 0.58 mg/kg.sc |  |  | 
CN1CC[C@]23c4c5ccc(O)c4O[C@H]2C(=NNC(N)=O)CC[C@H]3[C@H]1C5 [Dihydromorphinone semicarbazone] |  | 0.13 mg/kg.sc. | 0.085 mg/kg.sc | 4±6% | 69±13% | 
CN1CC[C@]23c4c5ccc(O)c4O[C@H]2C(=NNc2ccc([N+](=O)[O-])cc2[N+](=O)[O-])CC[C@@]3(O)[C@H]1C5 [Oxymorphone dinitrophenylhydrazone, 14-OH-dihydromorphinone-2,4-dinitrophenyl hydrazone] |  | 0.27 mg/kg.sc. | 0.37 mg/kg.sc | 1±0.3% | 33±1% | 
CN1CC[C@]23c4c5ccc(O)c4O[C@H]2C(=NNc2ccc([N+](=O)[O-])cc2[N+](=O)[O-])CC[C@H]3[C@H]1C5 [Dihydromorphinone dinitrophenylhydrazone, Dihydromorphinone-2,4-dinitrophenyl hydrazone] |  | 0.18 mg/kg.sc. | 0.27 mg/kg.sc | 0.5±0.7% | 17±2% | 
